# Measurements from patent publication US7071334B2, “6-(2-chloro-6-fluoro-phenyl)-triazolopyrimidines” (priority 2001, dated 2006).
# Columns and labels:
# Format in all cases: in vivo
# [1] = system: Pyrenophora teres; assay: Comparison Test 2: Control of net blotch on barley; settings: barley treated with 250 ppm, inoculated next day, assessed after 6 days; untreated 100%
# [2] = system: Alternaria solani; assay: Comparison Test 1: Fungicidal control of early blight on tomatoes; settings: another trial, tomato plants treated with 16 ppm; untreated 90%
# [3] = system: Sphaerotheca fuliginea; assay: Comparison Test 5: Protective control of powdery mildew on cucumber; settings: cucumber seedlings treated with 16 ppm, inoculated next day, assessed after 8 days; untreated 100%
# Description: Cucumber seedlings of the variety “Chinesische Schlange” were grown in pots to the 2 leaf stage. The plants were then sprayed to run-off with an aqueous suspension, containing the concentration of active ingredient as described below, prepared from a stock solution containing 10% of the active ingredient, 85% cyclohexanone and 5% emulsifier. The next day the treated plants were inoculated with an aqueous spore suspension of cucumber powdery mildew (Sphaerotheca fuliginea). Then the trial plants were cultivated in a greenhouse at temperatures between 20 and 24° C. and a relative humidity between 60 and 80.%. After 8 days the extent of fungal attack on the leaves was visually assessed as % diseased leaf area.
# [4] = system: Septoria tritici; assay: Comparison Trial 3: Fungicidal control of leaf blotch on wheat (protective); settings: wheat seedlings treated with 63 ppm, inoculated following day, assessed after 2 weeks; untreated 90%
smiles,measurement,setting,value
COc1nc2ncnn2c(C2CCCCC2)c1-c1c(F)cccc1Cl [C],infection (% diseased leaf area),[1],100%
N#Cc1nc2ncnn2c(C2CCCCC2)c1-c1c(F)cccc1Cl [D],infection (% diseased leaf area),[1],100%
Cc1nc2ncnn2c(N2CCC(C)CC2)c1-c1c(F)cccc1Cl [E],infection (% diseased leaf area),[2],30%
same,infection (% diseased leaf area),[3],90%
CCN(CC)c1c(-c2c(F)cccc2Cl)c(C#N)nc2ncnn12 [I-5],infection (% diseased leaf area),[4],no infection
